According to patent publication US20250019373A1, “ARYL OR HETEROARYL DERIVATIVE, AND PHARMACEUTICAL COMPOSITION COMPRISING SAME AS ACTIVE INGREDIENT FOR PREVENTION OR TREATMENT OF KINASE-RELATED DISEASES” (VORONOI INC., priority 2021, published 2025):
pEC50: −log10 of the molar value.

Tested on: HT-29 cells
Assay: Cell necrosis inhibitory activity under necroptosis-inducing conditions (TNF-α, Z-VAD-FMK, LCL161) in HT-29 cells, Cell Titer-Glo
Format: cell-based
Conditions: Homo sapiens, 100 ng/mL TNF-α + 25 μM Z-VAD-FMK + Smac mimetic LCL161, 24 hours, cell viability
Procedure: To evaluate the cell necrosis inhibitory activity of the compound according to the present invention, an experiment was conducted as follows.
To evaluate the efficacy of inhibiting cell necrosis under TNF-α-mediated cell death-inducing conditions, a HT-29 cell line (Korean Cell Line Bank Accession No. #30038) was cultured in RPMI-1640 (HyClone #SH3027.01) medium containing 10% fetal bovine serum (FBS) and 1% penicillin/streptomycin to analyze cell viability. More specifically, for testing, the cell line was seeded in a 96-well flat bottom plate (Corning #3903) at a concentration of 10,000 cells/well and incubated at 37° C. under a 5% CO2 condition for 24 hours. Each well was treated with 100 ng/mL TNF-α, 25 μM pan-caspase inhibitor (Z-VAD-FMK, Selleckchem #S8102), and 10 µM Smac mimetic LCL161 (Selleckchem #S7009) and allowed to react for 10 minutes. The compounds of Examples were treated at 11 concentrations (the highest concentration being 0.1 μM or 1 μM) with a 3-fold concentration gradient, and as a control, dimethyl sulfoxide (DMSO) was treated at a concentration of 0.05% (v/v), which is the same as those when the compounds were treated. The treated cells were incubated for 24 hours. To confirm the degree of cell viability, 100 μL of Cell Titer-Glo (Promega #G7573) was added to the medium of the cultured cells and cultured for additional 10 minutes, and then luminescence was measured using a microplate reader. Based on the […] of control cells that were not treated with the compound, the degree of cell necrosis inhibitory activity was calculated according to the treatment concentration of each compound. Here, the concentration at which the cell necrosis inhibitory activity was 50% was determined as an EC50 (nM) value and calculated using Prism (ver. 8.4.3 #GraphPad) software.

Compound | pEC50
CNC(=O)c1n[nH]c2cc(-c3cncc(NC(=O)N4OCC[C@H]4c4ccccc4)c3)ccc12 [Example 19, (S)-N-(5-(3-(methylcarbamoyl)-1H-indazol-6-yl)pyridin-3-yl)-3-phenylisoxazolidine-2-carboxamide] | 9.00
COc1cccc([C@@H]2CCON2C(=O)Nc2cc(-c3ccc4nc(N)nn4c3)cnc2C)c1 [Example 45, (S)-N-(5-(2-amino-[1,2,4]triazolo[1,5-a]pyridin-6-yl)-2-methylpyridin-3-yl)-3-(3-methoxyphenyl)isoxazolidine-2-carboxamide] | 8.34
COc1ncc(-c2ccn3nc(N)nc3c2)cc1NC(=O)N1OCC[C@H]1c1ccccc1 [Example 47, (S)-N-(5-(2-amino-[1,2,4]triazolo[1,5-a]pyridin-7-yl)-2-methoxypyridin-3-yl)-3-phenylisoxazolidine-2-carboxamide] | 9.30
COc1ncc(-c2ccn3nc(N)nc3c2)cc1NC(=O)N1OCC[C@H]1c1cccc(F)c1 [Example 53, (S)-N-(5-(2-amino-[1,2,4]triazolo[1,5-a]pyridin-7-yl)-2-methoxypyridin-3-yl)-3-(3-fluorophenyl)isoxazolidine-2-carboxamide] | 9.30
Cc1ncc(-c2ccc3nc(N)nn3c2)cc1NC(=O)N1OCC[C@H]1c1cc(F)cc(F)c1 [Example 38, (S)-N-(5-(2-amino-[1,2,4]triazolo[1,5-a]pyridin-6-yl)-2-methylpyridin-3-yl)-3-(3,5-difluorophenyl)isoxazolidine-2-carboxamide] | 8.80
CC(=O)Nc1cn2nc(-c3cccc(NC(=O)N4OCC[C@H]4c4ccccc4)c3)ccc2n1 [Example 1, (S)-N-(3-(2-acetamidoimidazo[1,2-b]pyridazin-6-yl)phenyl)-3-phenylisoxazolidine-2-carboxamide] | 9.05
Cc1ccc(-c2ccn3nc(N)cc3c2)cc1NC(=O)N1OCC2(CC2)[C@H]1c1ccccc1 [Example 140, (R)-N-(5-(2-aminopyrazolo[1,5-a]pyridin-5-yl)-2-methylphenyl)-7-phenyl-5-oxa-6-azaspiro[2.4]heptane-6-carboxamide] | 8.77
Cc1ccc(-c2ccn3nc(N)nc3c2)cc1NC(=O)N1OCC[C@H]1c1cccc(F)c1 [Example 62, (S)-N-(5-(2-amino-[1,2,4]triazolo[1,5-a]pyridin-7-yl)-2-methylphenyl)-3-(3-fluorophenyl)isoxazolidine-2-carboxamide] | 9.70
CNC(=O)c1n[nH]c2cc(-c3cnc(OC)c(NC(=O)N4OCC[C@H]4c4ccccc4)c3)ccc12 [Example 22, (S)-N-(2-methoxy-5-(3-(methylcarbamoyl)-1H-indazol-6-yl)pyridin-3-yl)-3-phenylisoxazolidine-2-carboxamide] | 9.52
Cc1ccc([C@@H]2CCON2C(=O)Nc2cc(-c3ccc4nc(N)nn4c3)cnc2C)cn1 [Example 51, (S)-N-(5-(2-amino-[1,2,4]triazolo[1,5-a]pyridin-6-yl)-2-methylpyridin-3-yl)-3-(6-methylpyridin-3-yl)isoxazolidine-2-carboxamide] | 7.63
Cc1ccc(-c2ccc3nnc(C)n3n2)cc1NC(=O)N1OCC[C@H]1c1ccccc1 [Example 107, (S)-N-(2-methyl-5-(3-methyl-[1,2,4]triazolo[4,3-b]pyridazin-6-yl)phenyl)-3-phenylisoxazolidine-2-carboxamide] | 7.63
Cc1ncc(-c2ccn3nc(N)nc3c2)cc1NC(=O)N1OCC[C@H]1c1ccccc1 [Example 50, (S)-N-(5-(2-amino-[1,2,4]triazolo[1,5-a]pyridin-7-yl)-2-methylpyridin-3-yl)-3-phenylisoxazolidine-2-carboxamide] | 8.89
Nc1nc2ccc(-c3ccc(Cl)c(NC(=O)N4OCC[C@H]4c4ccccc4)c3)cn2n1 [Example 97, (S)-N-(5-(2-amino-[1,2,4]triazolo[1,5-a]pyridin-6-yl)-2-chlorophenyl)-3-phenylisoxazolidine-2-carboxamide] | 8.96
CNC(=O)c1n[nH]c2cc(-c3cc(NC(=O)N4OCC[C@H]4c4ccccc4)cnc3C)ccc12 [Example 18, (S)-N-(6-methyl-5-(3-(methylcarbamoyl)-1H-indazol-6-yl)pyridin-3-y1)-3-phenylisoxazolidine-2-carboxamide] | 9.52
Cc1ncc(-c2ccc3nc(NC(=O)C4CC4)sc3c2)cc1NC(=O)N1OCC[C@H]1c1ccccc1 [Example 29, (S)-N-(5-(2-(cyclopropanecarboxamido)benzo[d]thiazol-6-yl)-2-methylpyridin-3-yl)-3-phenylisoxazolidine-2-carboxamide] | 10.00
COc1ncc(-c2ccc3nnn(C(C)C)c3c2)cc1NC(=O)N1OCC[C@H]1c1ccccc1 [Example 12, (S)-N-(5-(1-isopropyl-1H-benzo[d][1,2,3]triazol-6-yl)-2-methoxypyridin-3-yl)-3-phenylisoxazolidine-2-carboxamide] | 7.86
COc1ncc(-c2ccc3nc(N)cn3n2)cc1NC(=O)N1OCC[C@H]1c1ccccc1 [Example 7, (S)-N-(5-(2-aminoimidazo[1,2-b]pyridazin-6-y1)-2-methoxypyridin-3-yl)-3-phenylisoxazolidine-2-carboxamide] | 7.40
COc1ncc(-c2ccc3nc(NC(C)=O)sc3n2)cc1NC(=O)N1OCC[C@H]1c1ccccc1 [Example 14, (S)-N-(5-(2-acetamidothiazolo[5,4-b]pyridin-5-yl)-2-methoxypyridin-3-yl)-3-phenylisoxazolidine-2-carboxamide] | 9.15
Cc1ccc(-c2ccn3nc(N)cc3c2)cc1NC(=O)N1OCC[C@H]1c1ccccc1 [Example 126, (S)-N-(5-(2-aminopyrazolo[1,5-a]pyridin-5-yl)-2-methylphenyl)-3-phenylisoxazolidine-2-carboxamide] | 9.40
Nc1nc2ccc(-c3ccc(F)c(NC(=O)N4OCC[C@H]4c4ccccc4)c3F)cc2s1 [Example 132, (S)-N-(3-(2-aminobenzo[d]thiazol-6-yl)-2,6-difluorophenyl)-3-phenylisoxazolidine-2-carboxamide] | 8.09
COc1ncc(-c2csc3c(N)ncnc23)cc1NC(=O)N1OCC[C@H]1c1ccccc1 [Example 128, (S)-N-(5-(4-aminothieno[3,2-d]pyrimidine-7-yl)-2-methoxypyridin-3-yl)-3-phenylisoxazolidine-2-carboxamide] | 7.42
Cc1ncc(-c2ccn3nc(NC(=O)C4CC4)nc3c2)cc1NC(=O)N1OCC[C@H]1c1ccccc1 [Example 48, (S)-N-(5-(2-(cyclopropanecarboxamido)-[1,2,4]triazolo[1,5-a]pyridin-7-yl)-2-methylpyridin-3-yl)-3-phenylisoxazolidine-2-carboxamide] | 9.40
COc1ccc(-c2ccc3nnn(C(C)C)c3c2)cc1NC(=O)N1OCC[C@H]1c1ccccc1 [Example 15, (S)-N-(5-(1-isopropyl-1H-benzo[d][1,2,3]triazol-6-yl)-2-methoxyphenyl)-3-phenylisoxazolidine-2-carboxamide] | 7.62
Cc1ncc(-c2ccc3c(N)ncnn23)cc1NC(=O)N1OCC[C@H]1c1ccccc1 [Example 120, (S)-N-(5-(4-aminopyrrolo[2,1-f][1,2,4]triazin-7-yl)-2-methylpyridin-3-yl)-3-phenylisoxazolidine-2-carboxamide] | 9.00
Cc1cc(F)c(-c2ccc3nc(N)nn3c2)cc1NC(=O)N1OCC[C@H]1c1ccccc1 [Example 34, (S)-N-(5-(2-amino-[1,2,4]triazolo[1,5-a]pyridin-6-yl)-4-fluoro-2-methylphenyl)-3-phenylisoxazolidine-2-carboxamide] | 9.30
COc1ncc(-c2ccc3nc(NC(C)=O)sc3c2)cc1NC(=O)N1OCC[C@H]1c1ccccc1 [Example 26, (S)-N-(5-(2-acetamidobenzo[d]thiazol-6-yl)-2-methoxypyridin-3-yl)-3-phenylisoxazolidine-2-carboxamide] | 9.15
Cc1ccc(-c2ccc3ncc(C#CC(C)(C)O)n3c2)cc1NC(=O)N1OCC[C@H]1c1ccccc1 [Example 115, (S)-N-(5-(3-(3-hydroxy-3-methylbut-1-yn-1-yl)imidazo[1,2-a]pyridin-6-yl)-2-methylphenyl)-3-phenylisoxazolidine-2-carboxamide] | 8.77
Cc1ncc(-c2ccc3nc(N)nn3c2)cc1NC(=O)N1OCC[C@H]1c1ccc(F)c(F)c1 [Example 55, (S)-N-(5-(2-amino-[1,2,4]triazolo[1,5-a]pyridin-6-yl)-2-methylpyridin-3-yl)-3-(3,4-difluorophenyl)isoxazolidine-2-carboxamide] | 9.22
Cc1ccc(-c2ccc3ncc(C#CC(C)(C)O)n3n2)cc1NC(=O)N1OCC[C@H]1c1ccccc1 [Example 117, (S)-N-(5-(3-(3-hydroxy-3-methylbut-1-yn-1-yl)imidazo[1,2-b]pyridazin-6-yl)-2-methylphenyl)-3-phenylisoxazolidine-2-carboxamide] | 8.62
Cc1ccc(-c2ccn3nc(N)cc3c2)cc1NC(=O)N1CCO[C@@H](c2ccccc2)C1 [Example 137, (S)-N-(5-(2-aminopyrazolo[1,5-a]pyridin-5-yl)-2-methylphenyl)-2-phenylmorpholine-4-carboxamide] | 7.31
